The text below walks through data of US7943616B2, “Azaindoles for inhibiting aurora2 and other kinases” (Aventis Pharmaceuticals Inc., priority 2001, dated 2011).

Molecules are shown by their SMILES.

As usually defined, the melting point is the temperature, or range, at which the solid turns liquid. In turn, `c1cncc(OCCCn2cc(-c3cc4nccnc4[nH]3)c3ccccc32)c1` [Example 6, 6-{1-[3-(Pyridin-3-yloxy)-propyl]-1H-indol-3-yl}-5H-pyrrolo[2,3-b]pyrazine] gave a melting point of 208 to 209 °C. `Cn1cc(-c2cc3nccnc3[nH]2)c2cc(O)ccc21` [Example 7, 1-methyl-3-(5H-pyrrolo[2,3-b]pyrazin-6-yl)-1H-indol-5-ol] registered a melting point of 289 to 290 °C. The result for `COc1ccc2[nH]cc(-c3cc4nccnc4[nH]3)c2c1` [Example 11, 6-(5-methoxy-1H-indol-3-yl)-5H-pyrrolo[2,3-b]pyrazine] reads 268 to 271 °C; that for `Cn1cc(-c2cc3cccnc3[nH]2)c2cc(N)ccc21` [Example 18, 1-Methyl-3-(1H-pyrrolo[2,3-b]pyridin-2-yl)-1H-indol-5-ylamine], 247 to 248 °C. The result for `CC(C)(C)c1ccc(-c2[nH]c3nccnc3c2CCC#N)cc1` [Example 23] reads 215 to 216 °C; that for `CC(C)(C)c1ccc(-c2[nH]c3nccnc3c2CCCO)cc1` [Example 26, 3-[6-(4-tert-Butyl-phenyl)-5H-pyrrolo[2,3-b]pyrazin-7-yl]-propan-1-ol], 187 to 189 °C; that for `CCOC(=O)COc1cc(-c2cc3nccnc3[nH]2)ccc1OC` [Example 27, [2-Methoxy-5-(5H-pyrrolo[2,3-b]pyrazin-6-yl)-phenoxy]acetic Acid Ethyl Ester], 183 to 184 °C.

As for `COc1ccc2[nH]cc(-c3cc4c(C(N)=O)ccnc4[nH]3)c2c1` [Example 42, 2-(5-Methoxy-1H-indol-3-yl)-1H-pyrrolo[2,3-b]pyridine-4 Carboxamide], the melting point is over 320 °C.
